# Test results taken from ChEMBL document CHEMBL5113480, “Discovery of novel biphenyl-substituted pyridone derivatives as potent non-nucleoside reverse transcriptase inhibitors with promising oral bioavailability” (Eur J Med Chem, 2022).
# What was measured:
# [1] = Tmax in Sprague-Dawley rat at 1 mg/kg,iv; type: ADME, organism-based; settings: in vivo
# [2] = target: Voltage-gated inwardly rectifying potassium channel KCNH2 (Homo sapiens, UniProt Q12809); experiment: Inhibition of human ERG potassium channel expressed in CHO cells by automated patch clamp electrophysiological assay; type: toxicity, cell-based
# Chain of Voltage-gated inwardly rectifying potassium channel KCNH2 (Q12809 whole entry): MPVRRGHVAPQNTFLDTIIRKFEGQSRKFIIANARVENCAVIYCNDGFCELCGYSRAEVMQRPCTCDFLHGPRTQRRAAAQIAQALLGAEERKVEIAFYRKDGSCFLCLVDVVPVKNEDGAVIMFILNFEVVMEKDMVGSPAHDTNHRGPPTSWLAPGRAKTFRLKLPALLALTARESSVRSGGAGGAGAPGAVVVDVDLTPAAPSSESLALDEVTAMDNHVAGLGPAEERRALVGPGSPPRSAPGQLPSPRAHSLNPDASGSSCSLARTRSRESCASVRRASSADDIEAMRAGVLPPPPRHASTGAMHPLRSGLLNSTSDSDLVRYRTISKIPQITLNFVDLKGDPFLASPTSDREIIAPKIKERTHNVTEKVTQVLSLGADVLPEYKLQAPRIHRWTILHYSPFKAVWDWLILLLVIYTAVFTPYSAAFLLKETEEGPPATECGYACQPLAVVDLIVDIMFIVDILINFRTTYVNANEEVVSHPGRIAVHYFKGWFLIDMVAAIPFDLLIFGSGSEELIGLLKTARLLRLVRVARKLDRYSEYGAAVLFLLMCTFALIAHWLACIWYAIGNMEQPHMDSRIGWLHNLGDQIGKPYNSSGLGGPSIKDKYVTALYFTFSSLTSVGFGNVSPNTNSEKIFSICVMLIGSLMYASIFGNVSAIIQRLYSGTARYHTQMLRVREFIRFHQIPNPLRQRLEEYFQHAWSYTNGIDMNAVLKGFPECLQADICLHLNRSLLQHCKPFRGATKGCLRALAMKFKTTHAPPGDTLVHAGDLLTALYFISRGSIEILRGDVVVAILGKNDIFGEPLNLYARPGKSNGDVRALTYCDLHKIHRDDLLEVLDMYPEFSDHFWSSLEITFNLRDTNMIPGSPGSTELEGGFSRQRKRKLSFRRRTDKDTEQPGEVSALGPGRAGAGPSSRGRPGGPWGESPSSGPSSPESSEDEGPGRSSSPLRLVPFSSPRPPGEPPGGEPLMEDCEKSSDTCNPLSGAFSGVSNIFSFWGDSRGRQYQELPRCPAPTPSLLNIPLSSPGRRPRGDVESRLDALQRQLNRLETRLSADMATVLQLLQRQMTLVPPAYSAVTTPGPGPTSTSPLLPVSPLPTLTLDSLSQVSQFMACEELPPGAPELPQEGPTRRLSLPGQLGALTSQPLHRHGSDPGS
# [3] = target: Human immunodeficiency virus type 1 reverse transcriptase (Human immunodeficiency virus 1, UniProt Q72547); experiment: Inhibition of wild type HIV-1 Reverse transcriptase
# [4] = Tmax in Sprague-Dawley rat at 5 mg/kg,po; type: ADME, organism-based; settings: in vivo
# [5] = Acute toxicity in mouse at 1.2 g/Kg,IG assessed as liver damage by H and E staining based analysis; settings: in vivo, po, 1200 mg/kg
# [6] = Acute toxicity in mouse at 1.2 g/Kg,IG assessed as heart damage by H and E staining based analysis; type: tissue-based; settings: in vivo, po, 1200 mg/kg
# [7] = Half life in Sprague-Dawley rat at 1 mg/kg,iv; type: ADME, organism-based; settings: in vivo
# [8] = target: Cytochrome P450 2C9 (Homo sapiens, UniProt P11712); experiment: Inhibition of CYP2C9 (unknown origin); type: ADME
# Chain of Cytochrome P450 2C9 (P11712 whole entry): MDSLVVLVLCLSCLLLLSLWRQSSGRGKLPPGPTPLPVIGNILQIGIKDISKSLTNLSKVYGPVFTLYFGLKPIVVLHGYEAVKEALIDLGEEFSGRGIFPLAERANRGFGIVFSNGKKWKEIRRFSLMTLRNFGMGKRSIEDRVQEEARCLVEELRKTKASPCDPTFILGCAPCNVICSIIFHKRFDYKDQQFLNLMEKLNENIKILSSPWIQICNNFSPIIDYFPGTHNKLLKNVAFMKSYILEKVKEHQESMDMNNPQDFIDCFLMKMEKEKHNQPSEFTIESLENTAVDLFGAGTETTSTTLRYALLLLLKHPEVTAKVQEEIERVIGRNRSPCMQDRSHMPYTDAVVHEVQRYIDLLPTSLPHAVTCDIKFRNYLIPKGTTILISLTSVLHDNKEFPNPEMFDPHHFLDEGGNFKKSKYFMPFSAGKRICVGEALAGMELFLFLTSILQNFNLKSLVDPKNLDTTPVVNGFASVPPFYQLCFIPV
# [9] = system: Human immunodeficiency virus 1; experiment: Antiviral activity against HIV-1 Y188L mutant infected in human MT4 cells assessed as reduction in viral replication by MTT assay; type: functional, organism-based; settings: Human immunodeficiency virus 1, Y188L mutant
# [10] = Cmax in Sprague-Dawley rat at 1 mg/kg,iv; type: ADME, organism-based; set-up: dose 1 mg/kg, route iv; settings: in vivo
# [11] = Acute toxicity in mouse at 1.2 g/Kg,IG assessed as spleen damage by H and E staining based analysis; settings: in vivo, po, 1200 mg/kg
# [12] = system: Human immunodeficiency virus 1; experiment: Antiviral activity against HIV-1 E138K mutant infected in human MT4 cells assessed as reduction in viral replication by MTT assay; type: functional, organism-based; settings: Human immunodeficiency virus 1, E138K mutant
# [13] = system: Human immunodeficiency virus 1; experiment: Antiviral activity against HIV-1 K103N mutant infected in human MT4 cells assessed as reduction in viral replication by MTT assay; type: functional, organism-based; settings: Human immunodeficiency virus 1, K103N mutant
# [14] = Half life in Sprague-Dawley rat at 5 mg/kg,po; type: ADME, organism-based; settings: in vivo
# [15] = AUC (0 to t) in Sprague-Dawley rat at 5 mg/kg,po; type: ADME, organism-based; set-up: dose 5 mg/kg, route po; settings: in vivo
# [16] = Selectivity index, ratio of CC50 for cytotoxicity against human MT4 cells to EC50 of Anti-HIV activity against HIV-1 IIIB infected in human MT4 cells; type: toxicity, cell-based; settings: read-out: Ratio CC50/EC50
# [17] = MRT (0 to infinity) in Sprague-Dawley rat at 1 mg/kg,iv; type: ADME, organism-based; settings: in vivo
# [18] = system: Human immunodeficiency virus 1; experiment: Antiviral activity against HIV-1 L100I mutant infected in human MT4 cells assessed as reduction in viral replication by MTT assay; type: functional, organism-based; settings: Human immunodeficiency virus 1, L100I mutant
# [19] = target: T1, Cytochrome P450 3A4 (Homo sapiens, UniProt P08684); experiment: Inhibition of CYP3A4M (unknown origin); type: ADME
# T1 sequence (P08684 whole entry): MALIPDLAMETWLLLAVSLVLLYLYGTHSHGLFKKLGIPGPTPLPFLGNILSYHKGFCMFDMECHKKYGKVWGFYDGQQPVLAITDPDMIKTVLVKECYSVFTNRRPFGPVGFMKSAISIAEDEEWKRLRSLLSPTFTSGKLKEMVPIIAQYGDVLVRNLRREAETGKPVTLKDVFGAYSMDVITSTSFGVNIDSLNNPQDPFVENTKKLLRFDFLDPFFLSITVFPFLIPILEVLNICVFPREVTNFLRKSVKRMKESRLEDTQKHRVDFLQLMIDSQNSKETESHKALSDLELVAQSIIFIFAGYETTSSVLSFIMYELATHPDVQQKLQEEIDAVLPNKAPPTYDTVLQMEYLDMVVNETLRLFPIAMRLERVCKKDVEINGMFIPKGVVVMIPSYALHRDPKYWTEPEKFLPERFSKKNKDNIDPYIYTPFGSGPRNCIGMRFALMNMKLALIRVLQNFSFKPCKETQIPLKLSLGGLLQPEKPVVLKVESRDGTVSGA
# [20] = Clearance in Sprague-Dawley rat at 1 mg/kg,iv; type: ADME, organism-based; settings: in vivo
# [21] = system: Human immunodeficiency virus 1; experiment: Antiviral activity against HIV-1 IIIB infected in human MT4 cells assessed as reduction in viral replication by MTT assay; type: functional, organism-based; settings: Human immunodeficiency virus 1, IIIB
# [22] = target: Cytochrome P450 2C19 (Homo sapiens, UniProt P33261); experiment: Inhibition of CYP2C19 (unknown origin); type: ADME
# Chain of Cytochrome P450 2C19 (P33261 whole entry): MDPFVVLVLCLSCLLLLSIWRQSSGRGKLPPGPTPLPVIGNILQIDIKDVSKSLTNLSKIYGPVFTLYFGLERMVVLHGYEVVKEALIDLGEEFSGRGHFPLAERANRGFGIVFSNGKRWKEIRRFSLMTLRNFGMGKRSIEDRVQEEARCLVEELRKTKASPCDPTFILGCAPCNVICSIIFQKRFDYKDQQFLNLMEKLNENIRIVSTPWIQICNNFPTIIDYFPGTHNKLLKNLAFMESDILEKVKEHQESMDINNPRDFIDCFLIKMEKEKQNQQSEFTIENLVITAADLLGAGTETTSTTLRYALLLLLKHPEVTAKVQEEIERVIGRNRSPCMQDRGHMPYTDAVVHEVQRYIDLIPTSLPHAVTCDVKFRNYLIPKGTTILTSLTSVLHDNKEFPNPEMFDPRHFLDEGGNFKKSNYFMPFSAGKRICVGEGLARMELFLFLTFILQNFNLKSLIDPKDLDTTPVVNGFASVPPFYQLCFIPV
# [23] = target: T1, Cytochrome P450 3A4; experiment: Inhibition of CYP3A4T (unknown origin); type: ADME
# [24] = Cmax in Sprague-Dawley rat at 5 mg/kg,po; type: ADME, organism-based; set-up: dose 5 mg/kg, route po; settings: in vivo
# [25] = MRT (0 to t) in Sprague-Dawley rat at 1 mg/kg,iv; type: ADME, organism-based; settings: in vivo
# [26] = Acute toxicity in mouse at 1.2 g/Kg,IG assessed as kidney damage by H and E staining based analysis; settings: in vivo, po, 1200 mg/kg
# [27] = Acute toxicity in mouse at 1.2 g/Kg,IG assessed as brain damage by H and E staining based analysis; type: tissue-based; settings: in vivo, po, 1200 mg/kg
# [28] = AUC (0 to infinity) in Sprague-Dawley rat at 5 mg/kg,po; type: ADME, organism-based; set-up: time infinity, dose 5 mg/kg, route po; settings: in vivo
# [29] = Acute toxicity in mouse at 1.2 g/Kg,IG assessed as mouse death; settings: in vivo, po, 1200 mg/kg
# [30] = system: Human immunodeficiency virus 1; experiment: Antiviral activity against HIV-1 F227L-V106A mutant infected in human MT4 cells assessed as reduction in viral replication by MTT assay; type: functional, organism-based; settings: Human immunodeficiency virus 1, F227L-V106A mutant
# [31] = MRT (0 to t) in Sprague-Dawley rat at 5 mg/kg,po; type: ADME, organism-based; settings: in vivo
# [32] = MRT (0 to infinity) in Sprague-Dawley rat at 5 mg/kg,po; type: ADME, organism-based; settings: in vivo
# [33] = Acute toxicity in mouse at 1.2 g/Kg,IG assessed as lung damage by H and E staining based analysis; settings: in vivo, po, 1200 mg/kg
# [34] = system: Human immunodeficiency virus 1; experiment: Antiviral activity against HIV-1 K103N-Y181C mutant infected in human MT4 cells assessed as reduction in viral replication by MTT assay; type: functional, organism-based; settings: Human immunodeficiency virus 1, K103N-Y181C mutant
# [35] = AUC (0 to t) in Sprague-Dawley rat at 1 mg/kg,iv; type: ADME, organism-based; set-up: dose 1 mg/kg, route iv; settings: in vivo
# [36] = system: Human immunodeficiency virus 1; experiment: Antiviral activity against HIV-1 ROD infected in human MT4 cells assessed as reduction in viral replication by MTT assay; type: functional, organism-based
# [37] = AUC (0 to infinity) in Sprague-Dawley rat at 1 mg/kg,iv; type: ADME, organism-based; set-up: time infinity, dose 1 mg/kg, route iv; settings: in vivo
# [38] = target: T2, Cytochrome P450 1A2 (Homo sapiens, UniProt P05177); experiment: Inhibition of CYP1A2 (unknown origin); type: ADME
# T2 sequence (P05177 whole entry): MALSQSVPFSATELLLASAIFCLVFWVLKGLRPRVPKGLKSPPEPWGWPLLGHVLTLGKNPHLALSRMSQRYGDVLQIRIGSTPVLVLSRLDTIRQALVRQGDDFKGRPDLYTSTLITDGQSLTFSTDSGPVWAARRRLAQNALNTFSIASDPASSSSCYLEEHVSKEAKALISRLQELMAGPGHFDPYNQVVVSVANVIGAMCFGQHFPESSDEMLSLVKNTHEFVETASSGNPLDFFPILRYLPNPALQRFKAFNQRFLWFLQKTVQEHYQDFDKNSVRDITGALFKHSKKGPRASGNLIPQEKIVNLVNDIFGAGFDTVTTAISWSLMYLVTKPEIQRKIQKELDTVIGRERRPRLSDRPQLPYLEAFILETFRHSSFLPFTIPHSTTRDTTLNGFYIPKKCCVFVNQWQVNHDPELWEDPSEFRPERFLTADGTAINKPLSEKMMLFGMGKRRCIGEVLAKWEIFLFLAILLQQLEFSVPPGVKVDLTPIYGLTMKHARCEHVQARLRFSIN
# [39] = system: Human immunodeficiency virus 1; experiment: Antiviral activity against HIV-1 Y181C mutant infected in human MT4 cells assessed as reduction in viral replication by MTT assay; type: functional, organism-based; settings: Human immunodeficiency virus 1, Y181C mutant
# [40] = Clearance in Sprague-Dawley rat at 5 mg/kg,po; type: ADME, organism-based; settings: in vivo
# [41] = Acute toxicity in mouse at 1.2 g/Kg,IG assessed as change in body weight; settings: in vivo, po, 1200 mg/kg
# [42] = Acute toxicity in mouse at 1.2 g/Kg,IG assessed as behavioral abnormalities; settings: in vivo, po, 1200 mg/kg
# [43] = target: Cytochrome P450 2D6 (Homo sapiens, UniProt P10635); experiment: Inhibition of CYP2D6 (unknown origin); type: ADME
# Chain of Cytochrome P450 2D6 (P10635 whole entry): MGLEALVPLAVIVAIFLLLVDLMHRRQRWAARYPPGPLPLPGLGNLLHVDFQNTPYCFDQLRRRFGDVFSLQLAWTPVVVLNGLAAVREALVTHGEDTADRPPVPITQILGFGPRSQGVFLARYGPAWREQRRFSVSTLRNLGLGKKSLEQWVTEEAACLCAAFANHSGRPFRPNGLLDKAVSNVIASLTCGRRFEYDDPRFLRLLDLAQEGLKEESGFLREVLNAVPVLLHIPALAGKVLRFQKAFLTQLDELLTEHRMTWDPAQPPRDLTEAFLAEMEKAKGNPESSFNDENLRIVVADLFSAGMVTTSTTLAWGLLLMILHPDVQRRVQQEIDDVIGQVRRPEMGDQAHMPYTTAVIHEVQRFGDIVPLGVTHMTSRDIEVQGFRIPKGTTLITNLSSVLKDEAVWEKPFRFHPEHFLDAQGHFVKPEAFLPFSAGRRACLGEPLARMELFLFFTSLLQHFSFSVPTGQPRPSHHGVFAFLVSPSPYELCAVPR
compound,measurement,setting,value
Cc1cccc(-c2cc(C#N)cc(Oc3c(C(F)(F)F)ccn(Cc4n[nH]c(=O)n4C)c3=O)c2)c1,Tmax,[1],4.8 min
same,IC50,[2],> 200 µM
same,IC50,[3],0.041 µM
same,Tmax,[4],6.67 h
same,Activity,[5],Non-Toxic
same,Activity,[6],Non-Toxic
same,half-life,[7],1.9 h
same,IC50,[8],38.3 µM
same,EC50,[9],0.76 µM
same,Cmax,[10],0.469 µg/mL
same,Activity,[11],Non-Toxic
same,EC50,[12],0.025 µM
same,EC50,[13],0.013 µM
same,half-life,[14],8.45 h
same,AUC(0-t),[15],4.98 µg·h/mL
same,selectivity ratio,[16],2020
same,MRT inf,[17],2.48 h
same,EC50,[18],0.024 µM
same,IC50,[19],> 50 µM
same,clearance,[20],1.07 L/h/kg
same,EC50,[21],0.013 µM
same,IC50,[22],28.6 µM
same,IC50,[23],25.3 µM
same,Cmax,[24],0.583 µg/mL
same,MRT last,[25],2.03 h
same,Activity,[26],Non-Toxic
same,Activity,[27],Non-Toxic
same,AUC(0-inf),[28],6.59 µg·h/mL
same,Activity,[29],Non-Toxic
same,EC50,[30],27.5 µM
same,MRT last,[31],6.79 h
same,MRT inf,[32],13.9 h
same,Activity,[33],Non-Toxic
same,EC50,[34],0.26 µM
same,AUC(0-t),[35],0.892 µg·h/mL
same,EC50,[36],> 35 µM
same,AUC(0-inf),[37],0.94 µg·h/mL
same,IC50,[38],> 50 µM
same,EC50,[39],0.058 µM
same,CL/F,[40],0.791 L/h/kg
same,Activity,[41],Non-Toxic
same,Activity,[42],Non-Toxic
same,IC50,[43],> 50 µM
